Test results from patent publication US20230192677A1, “CYP11A1 INHIBITORS” (ORION CORPORATION, priority 2020, published 2023).

Key:
CYP11A1 = biological target: T1, CYP11A1 (Homo sapiens, UniProt P05108); assay: CYP11A1 inhibition, isocaproic acid release assay (IARA) in H295R cells; format: cell-based; conditions: human H295R adrenocortical carcinoma cell line, three days, 3 nM [24,25-3H]-labelled cholesterol; read-out: IC50 on CYP11A1 inhibition (Group)
T1 construct: human H295R adrenocortical carcinoma cell line was used as source of enzyme; endogenous in cells; host or cells: H295R human adrenocortical carcinoma cells
T1 sequence (P05108 40-521): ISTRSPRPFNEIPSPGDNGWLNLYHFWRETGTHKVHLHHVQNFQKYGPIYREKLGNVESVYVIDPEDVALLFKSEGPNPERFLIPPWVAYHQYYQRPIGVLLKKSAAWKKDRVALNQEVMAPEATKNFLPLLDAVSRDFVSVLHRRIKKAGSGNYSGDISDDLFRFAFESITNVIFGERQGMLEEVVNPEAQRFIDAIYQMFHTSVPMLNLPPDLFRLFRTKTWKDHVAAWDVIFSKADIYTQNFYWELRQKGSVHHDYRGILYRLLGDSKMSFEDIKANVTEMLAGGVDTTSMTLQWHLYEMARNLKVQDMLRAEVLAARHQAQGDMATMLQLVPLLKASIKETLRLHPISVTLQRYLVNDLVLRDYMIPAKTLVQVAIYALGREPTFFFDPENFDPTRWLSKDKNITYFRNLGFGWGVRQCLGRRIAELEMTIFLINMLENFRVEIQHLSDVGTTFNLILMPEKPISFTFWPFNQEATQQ
Procedure: The ability of the test compounds to inhibit conversion of cholesterol to pregnenolone and isocaproic acid was measured by modification of isocaproic acid release assay (IARA) described by Ruangwises et al. (Biology of Reproduction 1991; 45(1):143-50) except that human H295R adrenocortical carcinoma cell line was used as source of enzyme and extraction was done with dextran-coated charcoal suspension (Isomaa, V. et al., Endocrinology 1982; 111(3):833-843). […] To determine the half maximal inhibitory concentration (IC50) of the test compounds on CYP11A1 inhibition, the cells were treated for three days with increasing concentrations of the test compounds in the presence of 3 nM [24,25-3H]-labelled cholesterol (American Radiolabelled Chemicals). The final DMSO concentration was 1%. Cell culture medium was extracted with dextran-coated charcoal suspension and the radiolabelled isocaproic acid was determined by mixing 100 μl of supernatant fraction in 200 μl of scintillation fluid (OptiPhase SuperMix, Perkin Elmer). Radioactivity was measured using a Microbeta scintillation counter (1450 MicroBeta Trilux, Wallac). All the test compounds were studied at 10 concentrations in duplicates.

[1] = biological target: recombinant human cytochrome P450 (CYP) CYP3A4 enzyme (Homo sapiens, UniProt P08684); assay: Formation of reactive metabolites, trapping with GSH, KCN and SCA; conditions: recombinant human CYP3A4, NADPH, 1 hour, pH 7.4
recombinant human cytochrome P450 (CYP) CYP3A4 enzyme, sequence (P08684 whole entry): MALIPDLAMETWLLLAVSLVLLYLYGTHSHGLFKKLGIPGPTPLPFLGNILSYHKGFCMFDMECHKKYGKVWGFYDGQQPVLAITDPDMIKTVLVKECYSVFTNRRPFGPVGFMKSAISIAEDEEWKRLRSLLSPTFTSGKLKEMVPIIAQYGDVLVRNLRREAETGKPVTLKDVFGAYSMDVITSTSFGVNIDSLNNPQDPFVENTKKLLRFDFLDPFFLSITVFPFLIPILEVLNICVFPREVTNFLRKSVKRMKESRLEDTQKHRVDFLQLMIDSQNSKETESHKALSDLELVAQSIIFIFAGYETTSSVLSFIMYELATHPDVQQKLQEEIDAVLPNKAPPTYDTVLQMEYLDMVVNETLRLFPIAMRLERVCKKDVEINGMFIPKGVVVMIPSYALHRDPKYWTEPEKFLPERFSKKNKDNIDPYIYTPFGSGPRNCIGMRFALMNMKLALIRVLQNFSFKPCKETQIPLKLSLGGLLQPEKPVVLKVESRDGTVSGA
Procedure: Formation of reactive metabolites was studied as described in Grillo, M., Expert Opin. […] (2015), 11(8):1281-1302 by incubating test compounds with recombinant human cytochrome P450 (CYP) CYP3A4 enzyme in the presence of cofactor NADPH and trapping agents glutathione (GSH), potassium cyanide (KCN) and semicarbazide (SCA).
Compounds were dissolved in DMSO and diluted in phosphate buffer (pH 7.4) to obtain the final incubation concentration 1 or 10 μM. Compounds were incubated with one trapping agent (mixture of unlabelled and ^13C^15N-labelled trapper 1:1) at a time with cofactor NADPH (actual samples) and without NADPH (control samples). Incubation time was 1 hour. Samples at timepoint 0 min (before incubation) and 60 min (after incubation) were analysed using ultra high-pressure liquid chromatography (UHPLC) coupled with high-resolution mass spectrometry (HRMS). Tentative identification of trapped metabolites was based on accurate masses of protonated molecules and product ion spectra of found metabolites and accurate mass differences between unlabelled and labelled trapping agents reacted with reactive metabolites.
The metabolites were classified as “major” if the peak area after incubation was over 10% of parent peak area before incubation. If peak area was between 1% and 10%, metabolites were classified as “minor” and if peak area was less than 1%, metabolite was classified as “trace”.

SMILES	IC50 (CYP11A1) [nM]	Number of CN trapped metabolites ([1]; test compound 10 μM)	Number of GSH trapped metabolites ([1]; test compound 10 μM)	Number of SCA trapped metabolites ([1]; test compound 10 μM)	Number of CN trapped metabolites ([1]; test compound 1 μM)	Number of GSH trapped metabolites ([1]; test compound 1 μM)	Number of SCA trapped metabolites ([1]; test compound 1 μM)
CS(=O)(=O)N1CCC(COc2coc(CN3Cc4ccc(-c5cnco5)cc4C3)cc2=O)CC1 [Compound 2, 5-((1-(Methylsulfonyl)piperidin-4-yl)methoxy)-2-((5-(oxazol-5-yl)isoindolin-2-yl)methyl)-4H-pyran-4-one]	101 to 200	0	0	3 (trace)	–	–	–
CC(O)c1ccc2c(c1)CN(Cc1cc(=O)c(OCC3CCN(S(C)(=O)=O)CC3)co1)C2 (stereo not drawn) [Compound 93, 2-((5-(1-Hydroxyethyl)isoindolin-2-yl)methyl)-5-((1-(methylsulfonyl)piperidin-4-yl)methoxy)-4H-pyran-4-one]	201 to 2000	0	0	3 (trace)	–	–	–
CS(=O)(=O)N1CCC(COc2coc(CN3Cc4ccc(-c5nnco5)cc4C3)cc2=O)CC1 [Compound 1, 2-((5-(1,3,4-Oxadiazol-2-yl)isoindolin-2-yl)methyl)-5-(((methylsulfonyl)piperidin-4-yl)methoxy)-4H-pyran-4-one]	101 to 200	0	0	2 (trace)	–	–	–
CS(=O)(=O)N1CCC(COc2coc(CN3Cc4ccc(-c5ncon5)cc4C3)cc2=O)CC1 [Compound 8, 2-((5-(1,2,4-Oxadiazol-3-yl)isoindolin-2-yl)methyl)-5-((1-(methylsulfonyl)-piperidin-4-yl)methoxy)-4H-pyran-4-one]	101 to 200	0	1 (trace)	–	–	–	–
CC(C)(C)OC(=O)N1CC2(CC(COc3coc(CN4CCc5ccccc5C4)cc3=O)C2)C1 [Compound 30, tert-Butyl 6-(((6-((3,4-dihydroisoquinolin-2(1H)-yl)methyl)-4-oxo-4H-pyran-3-yl)oxy)methyl)-2-azaspiro[3.3]heptane-2-carboxylate]	201 to 2000	–	–	–	0	0	0
C/C(=N\O)c1ccc2c(c1)CN(Cc1cc(=O)c(OCC3CCN(S(C)(=O)=O)CC3)co1)C2 [Compound 90, (E)-2-((5-(1-(Hydroxyimino)ethyl)isoindolin-2-yl)methyl)-5-((1-(methylsulfonyl)piperidin-4-yl)methoxy)-4H-pyran-4-one]	101 to 200	0	0	1 (trace)	–	–	–
CS(=O)(=O)N1CCC(COc2coc(CN3Cc4ccc(-n5cccn5)cc4C3)cc2=O)CC1 [Compound 7, 2-((5-(1H-Pyrazol-1-yl)isoindolin-2-yl)methyl)-5-((1-(methylsulfonyl)piperidin-4-yl)methoxy)-4H-pyran-4-one]	101 to 200	0	0	1 (trace)	–	–	–
